Reference: the supplement of paper PMC4862054

Experiments:
Experiment in all cases: drug sensitivity score (DSS), CellTiter-Glo (DSS (AUC-based score)); higher = stronger drug effect (viability inhibition or cytotoxicity); extreme values may be limits of the assay
Conditions in all cases: incubation time: 72 h
[1] = test system: BT-474
Method in brief: (§1)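 In 384-well plates, compound was laid out at 5 concentrations in 10-fold steps over a 10,000-fold range specific to each compound, and breast cancer cell lines were seeded on top in 20 µl suspension for a 72 h incubation. CellTox Green fluorescence and then CellTiter-Glo luminescence were read, and each plate was normalised to 0.1 % DMSO and a positive kill control. The drug sensitivity score was calculated from the area under the fitted dose-response curve.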

[2] = test system: BT-549
Method in brief: as §1

[3] = test system: CAL-120
Method in brief: as §1

[4] = test system: CAL-148
Method in brief: as §1

[5] = test system: CAL-51
Method in brief: as §1

[6] = test system: CAL-85-1
Method in brief: as §1

[7] = test system: DU-4475
Method in brief: as §1

[8] = test system: HCC1143
Method in brief: as §1

[9] = test system: HCC1599
Method in brief: as §1

[10] = test system: HCC1937
Method in brief: as §1

[11] = test system: HDQ-P1
Method in brief: as §1

[12] = test system: Hs578T
Method in brief: as §1

[13] = test system: MCF-10A
Method in brief: as §1

[14] = test system: MDA-MB-231
Method in brief: as §1

[15] = test system: MDA-MB-436
Method in brief: as §1

[16] = test system: MDA-MB-453
Method in brief: as §1

[17] = test system: MDA-MB-468
Method in brief: as §1

[18] = test system: MFM-223
Method in brief: as §1

[19] = test system: SK-BR-3
Method in brief: as §1

## CC1=C2C[C@H]3[C@@H](CC=C4C[C@@H](O)CC[C@@]43C)[C@@H]2CC[C@]12O[C@@H]1C[C@H](C)CN[C@H]1[C@H]2C [Cyclopamine]
[1]
  drug sensitivity score: 0
[2]
  drug sensitivity score: 0
[3]
  drug sensitivity score: 0
[4]
  drug sensitivity score: 0
[5]
  drug sensitivity score: 0
[6]
  drug sensitivity score: 0
[7]
  drug sensitivity score: 0
[8]
  drug sensitivity score: 0
[9]
  drug sensitivity score: 0
[10]
  drug sensitivity score: 0
[11]
  drug sensitivity score: 0
[12]
  drug sensitivity score: 0
[13]
  drug sensitivity score: 0
[14]
  drug sensitivity score: 0
[15]
  drug sensitivity score: 0
[16]
  drug sensitivity score: 0
[17]
  drug sensitivity score: 0
[18]
  drug sensitivity score: 0
[19]
  drug sensitivity score: 0

## CC(=O)N(O)CCCCCNC(=O)CCC(=O)N(O)CCCCCNC(=O)CCC(=O)N(O)CCCCCN [Deferoxamine]
[1]
  drug sensitivity score: 0
[2]
  drug sensitivity score: 5.68
[3]
  drug sensitivity score: 0
[4]
  drug sensitivity score: 9.03
[5]
  drug sensitivity score: 3.33
[6]
  drug sensitivity score: 0
[7]
  drug sensitivity score: 5.21
[8]
  drug sensitivity score: 3.11
[9]
  drug sensitivity score: 1.95
[10]
  drug sensitivity score: 3.29
[11]
  drug sensitivity score: 2.75
[12]
  drug sensitivity score: 2.31
[13]
  drug sensitivity score: 0
[14]
  drug sensitivity score: 0
[15]
  drug sensitivity score: 4.73
[16]
  drug sensitivity score: 0
[17]
  drug sensitivity score: 7.85
[18]
  drug sensitivity score: 0
[19]
  drug sensitivity score: 4.14

## CC(=O)O[C@@]12CO[C@@H]1C[C@H](O)[C@@]1(C)C(=O)[C@H](O)C3=C(C)[C@@H](OC(=O)[C@H](O)[C@@H](NC(=O)OC(C)(C)C)c4ccccc4)C[C@@](O)([C@@H](OC(=O)c4ccccc4)[C@H]21)C3(C)C [Docetaxel]
[1]
  drug sensitivity score: 15.6
[2]
  drug sensitivity score: 30.5
[3]
  drug sensitivity score: 13.3
[4]
  drug sensitivity score: 20.5
[5]
  drug sensitivity score: 19.5
[6]
  drug sensitivity score: 25.6
[7]
  drug sensitivity score: 15.1
[8]
  drug sensitivity score: 23.7
[9]
  drug sensitivity score: 16.7
[10]
  drug sensitivity score: 10.6
[11]
  drug sensitivity score: 10.6
[12]
  drug sensitivity score: 27.2
[13]
  drug sensitivity score: 20.4
[14]
  drug sensitivity score: 19.4
[15]
  drug sensitivity score: 22
[16]
  drug sensitivity score: 14.8
[17]
  drug sensitivity score: 27.3
[18]
  drug sensitivity score: 16.7
[19]
  drug sensitivity score: 31.4

## C[C@]12CC[C@@H]3c4ccc(OC(=O)N(CCCl)CCCl)cc4CC[C@H]3[C@@H]1CC[C@@H]2O [Estramustine]
[1]
  drug sensitivity score: 0
[2]
  drug sensitivity score: 0
[3]
  drug sensitivity score: 0
[4]
  drug sensitivity score: 0
[5]
  drug sensitivity score: 2.19
[6]
  drug sensitivity score: 0
[7]
  drug sensitivity score: 0
[8]
  drug sensitivity score: 0
[9]
  drug sensitivity score: 0
[10]
  drug sensitivity score: 0
[11]
  drug sensitivity score: 0
[12]
  drug sensitivity score: 0
[13]
  drug sensitivity score: 0
[14]
  drug sensitivity score: 0
[15]
  drug sensitivity score: 0
[16]
  drug sensitivity score: 0
[17]
  drug sensitivity score: 0.683
[18]
  drug sensitivity score: 0
[19]
  drug sensitivity score: 0

## C[C@]1(O)C[C@@H](c2nc(-c3ccc4ccc(-c5ccccc5)nc4c3)c3c(N)nccn32)C1 [Linsitinib]
[1]
  drug sensitivity score: 3.89
[2]
  drug sensitivity score: 0
[3]
  drug sensitivity score: 1.76
[4]
  drug sensitivity score: 0
[5]
  drug sensitivity score: 0
[6]
  drug sensitivity score: 2.88
[7]
  drug sensitivity score: 0
[8]
  drug sensitivity score: 1.82
[9]
  drug sensitivity score: 2.37
[10]
  drug sensitivity score: 0
[11]
  drug sensitivity score: 5.33
[12]
  drug sensitivity score: 0
[13]
  drug sensitivity score: 12.5
[14]
  drug sensitivity score: 0
[15]
  drug sensitivity score: 0.173
[16]
  drug sensitivity score: 2.26
[17]
  drug sensitivity score: 4.62
[18]
  drug sensitivity score: 0
[19]
  drug sensitivity score: 6.62

## CC1(C)CNc2cc(NC(=O)c3cccnc3NCc3ccncc3)ccc21 [Motesanib]
[1]
  drug sensitivity score: 0
[2]
  drug sensitivity score: 0
[3]
  drug sensitivity score: 0
[4]
  drug sensitivity score: 0
[5]
  drug sensitivity score: 0
[6]
  drug sensitivity score: 0
[7]
  drug sensitivity score: 0
[8]
  drug sensitivity score: 0
[9]
  drug sensitivity score: 0
[10]
  drug sensitivity score: 0
[11]
  drug sensitivity score: 0
[12]
  drug sensitivity score: 0
[13]
  drug sensitivity score: 0
[14]
  drug sensitivity score: 0
[15]
  drug sensitivity score: 0
[16]
  drug sensitivity score: 0
[17]
  drug sensitivity score: 0.164
[18]
  drug sensitivity score: 0
[19]
  drug sensitivity score: 0

## Cc1ccc([N+](=O)[O-])cc1S(=O)(=O)N(C)/N=C/c1cnc2ccc(Br)cn12 [PIK-75]
[1]
  drug sensitivity score: 28.5
[2]
  drug sensitivity score: 29
[3]
  drug sensitivity score: 22.4
[4]
  drug sensitivity score: 19
[5]
  drug sensitivity score: 30
[6]
  drug sensitivity score: 29
[7]
  drug sensitivity score: 29.1
[8]
  drug sensitivity score: 24
[9]
  drug sensitivity score: 23.1
[10]
  drug sensitivity score: 24
[11]
  drug sensitivity score: 25.5
[12]
  drug sensitivity score: 29
[13]
  drug sensitivity score: 28.4
[14]
  drug sensitivity score: 30.5
[15]
  drug sensitivity score: 27.1
[16]
  drug sensitivity score: 23
[17]
  drug sensitivity score: 30.2
[18]
  drug sensitivity score: 26
[19]
  drug sensitivity score: 30.4

## CC(=O)c1c(C)c2cnc(Nc3ccc(N4CCNCC4)cn3)nc2n(C2CCCC2)c1=O [Palbociclib]
[1]
  drug sensitivity score: 4.46
[2]
  drug sensitivity score: 0
[3]
  drug sensitivity score: 3.04
[4]
  drug sensitivity score: 0
[5]
  drug sensitivity score: 0.79
[6]
  drug sensitivity score: 0
[7]
  drug sensitivity score: 0
[8]
  drug sensitivity score: 0
[9]
  drug sensitivity score: 0
[10]
  drug sensitivity score: 0
[11]
  drug sensitivity score: 0
[12]
  drug sensitivity score: 0.478
[13]
  drug sensitivity score: 3.99
[14]
  drug sensitivity score: 0
[15]
  drug sensitivity score: 0
[16]
  drug sensitivity score: 0
[17]
  drug sensitivity score: 4.56
[18]
  drug sensitivity score: 5.89
[19]
  drug sensitivity score: 5.42

## CC[C@@H]1C(=O)OC[C@@H]1Cc1cncn1C [Pilocarpine]
[1]
  drug sensitivity score: 0
[2]
  drug sensitivity score: 0
[3]
  drug sensitivity score: 0
[4]
  drug sensitivity score: 0
[5]
  drug sensitivity score: 0
[6]
  drug sensitivity score: 0
[7]
  drug sensitivity score: 0
[8]
  drug sensitivity score: 0
[9]
  drug sensitivity score: 0
[10]
  drug sensitivity score: 0
[11]
  drug sensitivity score: 0
[12]
  drug sensitivity score: 0
[13]
  drug sensitivity score: 0
[14]
  drug sensitivity score: 0
[15]
  drug sensitivity score: 0
[16]
  drug sensitivity score: 0
[17]
  drug sensitivity score: 0
[18]
  drug sensitivity score: 0
[19]
  drug sensitivity score: 0

## COc1cc(F)c(F)c(Nc2ccc(I)cc2F)c1NS(=O)(=O)C1(C[C@H](O)CO)CC1 [Refametinib]
[1]
  drug sensitivity score: 8.51
[2]
  drug sensitivity score: 2.33
[3]
  drug sensitivity score: 7.28
[4]
  drug sensitivity score: 2.69
[5]
  drug sensitivity score: 0
[6]
  drug sensitivity score: 10.4
[7]
  drug sensitivity score: 26.1
[8]
  drug sensitivity score: 2.8
[9]
  drug sensitivity score: 0
[10]
  drug sensitivity score: 4.08
[11]
  drug sensitivity score: 12.7
[12]
  drug sensitivity score: 4.13
[13]
  drug sensitivity score: 23.6
[14]
  drug sensitivity score: 9.15
[15]
  drug sensitivity score: 4.19
[16]
  drug sensitivity score: 0
[17]
  drug sensitivity score: 7.13
[18]
  drug sensitivity score: 5.74
[19]
  drug sensitivity score: 0

## CC(C)(C)c1cnc(CSc2cnc(NC(=O)C3CCNCC3)s2)o1 [SNS-032]
[1]
  drug sensitivity score: 17.8
[2]
  drug sensitivity score: 27
[3]
  drug sensitivity score: 14.8
[4]
  drug sensitivity score: 10.3
[5]
  drug sensitivity score: 28.6
[6]
  drug sensitivity score: 25.1
[7]
  drug sensitivity score: 18.9
[8]
  drug sensitivity score: 24.3
[9]
  drug sensitivity score: 18.5
[10]
  drug sensitivity score: 17.2
[11]
  drug sensitivity score: 21.6
[12]
  drug sensitivity score: 21.8
[13]
  drug sensitivity score: 18.6
[14]
  drug sensitivity score: 25.3
[15]
  drug sensitivity score: 23.7
[16]
  drug sensitivity score: 17.7
[17]
  drug sensitivity score: 28.1
[18]
  drug sensitivity score: 17.1
[19]
  drug sensitivity score: 25.6

## Cn1cnc2c(F)c(Nc3ccc(Br)cc3Cl)c(C(=O)NOCCO)cc21 [Selumetinib]
[1]
  drug sensitivity score: 7.93
[2]
  drug sensitivity score: 0.661
[3]
  drug sensitivity score: 3
[4]
  drug sensitivity score: 0
[5]
  drug sensitivity score: 0
[6]
  drug sensitivity score: 0
[7]
  drug sensitivity score: 19.9
[8]
  drug sensitivity score: 0
[9]
  drug sensitivity score: 0.803
[10]
  drug sensitivity score: 0
[11]
  drug sensitivity score: 11.1
[12]
  drug sensitivity score: 0
[13]
  drug sensitivity score: 17.3
[14]
  drug sensitivity score: 5.56
[15]
  drug sensitivity score: 0.63
[16]
  drug sensitivity score: 0
[17]
  drug sensitivity score: 2.35
[18]
  drug sensitivity score: 0
[19]
  drug sensitivity score: 0

## Nc1nc2[nH]cnc2c(=S)[nH]1 [Thioguanine]
[1]
  drug sensitivity score: 12
[2]
  drug sensitivity score: 1.98
[3]
  drug sensitivity score: 6.5
[4]
  drug sensitivity score: 1.29
[5]
  drug sensitivity score: 5.29
[6]
  drug sensitivity score: 6.09
[7]
  drug sensitivity score: 4.33
[8]
  drug sensitivity score: 0.8
[9]
  drug sensitivity score: 5.01
[10]
  drug sensitivity score: 8.45
[11]
  drug sensitivity score: 7.16
[12]
  drug sensitivity score: 6.84
[13]
  drug sensitivity score: 0
[14]
  drug sensitivity score: 10.2
[15]
  drug sensitivity score: 4.37
[16]
  drug sensitivity score: 1.4
[17]
  drug sensitivity score: 1.72
[18]
  drug sensitivity score: 0
[19]
  drug sensitivity score: 0
